# Reference: PMC12198282, “Application of a high-density microelectrode array assay using a 3D human iPSC-derived brain microphysiological system model for in vitro neurotoxicity screening of environmental compounds” (Archives of Toxicology, 2025)
# “Also recorded” adds a separate entry of the source. Where two headings read alike, the source gives them in different places.
# Key:
# [1] = system: human iPSC-derived 3D BrainSpheres; assay: BrainSphere MEA assay (HD-MEA, 13-day exposure, concentration-response); format: cell-based; conditions: for EC (benchmark response 1.349 SD): 312 h
# Procedure: A volume of 1 ml of Tergazyme (1% solution in deionized water) was added to each well of the MaxTwo 6-Well Plate (MaxWell Biosystems) and incubated overnight under constant gyratory shaking (88 RPM) at 37 °C and 5% CO2. The next day, Tergazyme solution was removed, and plates were washed with distilled water and ethanol. After remaining ethanol was evaporated, wells were washed with PBS. Then, 200 µl of Poly-D-Lysine (Gibco, A38904 - 01) was added on top of the electrodes and incubated at 37 °C and 5% CO2 for 3 h (humidified). Poly-D-Lysine was then removed, and wells were coated with 100 µl of 0.1 mg/ml laminin coating solution (Sigma-Aldrich, L2020 - 1 mg) and incubated for 2 h at 37 ℃ and 5% CO2 (humidified). The laminin was removed after incubation. Using a 1 ml micropipette, 1 ml of medium containing BrainSpheres (7 weeks differentiated), approximately 25 BrainSpheres per ml, was plated on top of the HD-MEA chip (Fig. 1A). Afterwards, the plate was placed in an incubator at 37 °C and 5% CO2 and moved in circles to accumulate the BrainSpheres on top of the electrode area (Fig. 1A). The plate was kept in an incubator (humidified) for 2 days to allow attachment of the BrainSpheres with no gyratory shaking of the plates.
# The MaxTwo high-density microelectrode array system (MaxWell Biosystems AG, Zurich, Switzerland) was used to measure neural activity with MaxTwo 6-well plates, where every well includes an integrated chip with 26,400 platinum electrodes arranged in an area of 3.85 × 2.10 mm^2 ([…]) (Muller et al. [2015]). The data were recorded and analyzed with the MaxLab Live Software (version 22.2.22). First, the MaxLab live ActivityScan Assay was used to identify the activity and positioning of the BrainSpheres on the array by scanning all the 26,400 electrodes in 29 configurations in a well (Assay Parameters: Configuration = Full; Recording time per configuration = 60 s (s)). The settings gain = 512, high-pass-filter (HPF): ~ 1 Hz and spike threshold = 5 X root-mean square (RMS) noise were used for all HD-MEA recordings. Circular regions of interest (ROI) were manually selected in the Activity Map where neuronal activity was apparent by an increased activity (Fig. 2). Over the course of the 13-day experiment, the same selected regions and electrodes were measured using the MaxLab Live Network Assay (600 s recording time).
# A custom analysis framework was used to extract the MaxLab Live neuronal metrics for the individual BrainSpheres. For this, electrodes comprising a single ROI (i.e., individual BrainSphere; Fig. 2D) were grouped using distance-based clustering (fcluster method of Scipy library, Python 3.7) and neural metrics were calculated for the clustered electrodes for every ROI separately. Figure 2E presents a raster plot illustrating the activity associated with individual Regions of Interest (ROIs). […] Ten MaxLab Live neural metrics (endpoints) were evaluated from the MaxLab live ActivityScan and Network Assay in this study. See Table 3 for the endpoint definitions, tuned parameters, and activity type (general versus network connectivity).
# The BrainSphere MEA assay measured changes in neural activity during a 13-day chemical exposure. The first recording day of the concentration–response screening protocol (day of exposure (DOE) 0) occurred after 7 weeks of BrainSphere differentiation, 48 h after plating on HD-MEA plates (Fig. 1B). The study included at least three biological replicates (one well per plate) from separate experiments (e.g., three different plates on three different days) and each well included multiple BrainSpheres which were considered technical replicates.
# [2] = system: 2D rat cortical cultures; conditions: cytotoxicity LDH, cited from earlier work; for hitc CCTE_Shafer_MEA_dev_LDH: rNFA mc5 hit call
# [3] = AUC over 13-day exposure, tcplfit2
# [4] = tcplfit2 BMD at benchmark response (1.349*SD of baseline controls)
# [5] = tcplfit2 output ACC, activity cutoff in Supplemental Table 1
# [6] = top of winning model, response normalized as percent of vehicle control, negative = decrease
smiles,measurement,setting,value
[CH3][Hg][Cl] [Methylmercury],EC50,"[1]; 5th percentile across active AC50 values per chemical, read-out: Minimum potency",2.41 µM
same,Difference of minimum potency between BrainSphere MEA assay and rNFA,"[1]; 5th percentile of AC50 values by chemical, above 0.5 = more potent in the rNFA",more than 0.5 log10 µM
same,hitc Mean.Spheroid.Burst.Duration,[1]; [3],1
same,hitc Mean.Spheroid.Burst.ISI,[1]; [3],1
same,hitc Mean.Spheroid.Burst.Peak.Firing.Rate,[1]; [3],1
same,hitc Mean.Spheroid.Firing.Rate,[1]; [3],1
same,hitc Mean.Spheroid.IBI,[1]; [3],1
same,hitc Mean.Spheroid.Nonburst.ISI,[1]; [3],1
same,hitc Mean.Spheroid.Spikes.per.Burst,[1]; [3],1
same,hitc Mean.Spheroid.Spikes.per.Burst.per.Electrode,[1]; [3],1
same,hitc Spheroid.Burst.Frequency,[1]; [3],1
same,hitc Spheroid.Spike.Amplitude.90th.Percentile,[1]; [3],1
same,"Bioactivity trend over time for MFR, mean spike amplitude and burst frequency (qualitative)","[1]; DOE 0-13, highest tested concentrations, Fig. 3",appeared to decrease activity
same,AC50,"[1]; concentration at 50% maximal activity, Supplement 3 prints it also for curves with hit call 0, listed as Methylmercuric(II) chloride, read-out: ac50 Mean.Spheroid.Burst.Duration",5.9 µM
same,AC50,"[1]; concentration at 50% maximal activity, Supplement 3 prints it also for curves with hit call 0, listed as Methylmercuric(II) chloride, read-out: ac50 Mean.Spheroid.Burst.ISI",3.3 µM
same,AC50,"[1]; concentration at 50% maximal activity, Supplement 3 prints it also for curves with hit call 0, listed as Methylmercuric(II) chloride, read-out: ac50 Mean.Spheroid.Burst.Peak.Firing.Rate",3 µM
same,AC50,"[1]; concentration at 50% maximal activity, Supplement 3 prints it also for curves with hit call 0, listed as Methylmercuric(II) chloride, read-out: ac50 Mean.Spheroid.Firing.Rate",7.7 µM
same,AC50,"[1]; concentration at 50% maximal activity, Supplement 3 prints it also for curves with hit call 0, listed as Methylmercuric(II) chloride, read-out: ac50 Mean.Spheroid.IBI",6.3 µM
same,AC50,"[1]; concentration at 50% maximal activity, Supplement 3 prints it also for curves with hit call 0, listed as Methylmercuric(II) chloride, read-out: ac50 Mean.Spheroid.Nonburst.ISI",2.6 µM
same,AC50,"[1]; concentration at 50% maximal activity, Supplement 3 prints it also for curves with hit call 0, listed as Methylmercuric(II) chloride, read-out: ac50 Mean.Spheroid.Spikes.per.Burst",7.9 µM
same,AC50,"[1]; concentration at 50% maximal activity, Supplement 3 prints it also for curves with hit call 0, listed as Methylmercuric(II) chloride, read-out: ac50 Mean.Spheroid.Spikes.per.Burst.per.Electrode",6.5 µM
same,AC50,"[1]; concentration at 50% maximal activity, Supplement 3 prints it also for curves with hit call 0, listed as Methylmercuric(II) chloride, read-out: ac50 Spheroid.Burst.Frequency",2.3 µM
same,AC50,"[1]; concentration at 50% maximal activity, Supplement 3 prints it also for curves with hit call 0, listed as Methylmercuric(II) chloride, read-out: ac50 Spheroid.Spike.Amplitude.90th.Percentile",16 µM
same,AC50,"[1]; concentration at 50% maximal activity, Supplement 3 prints it also for curves with hit call 0, read-out: ac50 Mean.Spheroid.Burst.Duration",5.91 µM
same,AC50,"[1]; concentration at 50% maximal activity, Supplement 3 prints it also for curves with hit call 0, read-out: ac50 Mean.Spheroid.Burst.ISI",3.34 µM
same,AC50,"[1]; concentration at 50% maximal activity, Supplement 3 prints it also for curves with hit call 0, read-out: ac50 Mean.Spheroid.Burst.Peak.Firing.Rate",3.02 µM
same,AC50,"[1]; concentration at 50% maximal activity, Supplement 3 prints it also for curves with hit call 0, read-out: ac50 Mean.Spheroid.Firing.Rate",7.68 µM
same,AC50,"[1]; concentration at 50% maximal activity, Supplement 3 prints it also for curves with hit call 0, read-out: ac50 Mean.Spheroid.IBI",6.32 µM
same,AC50,"[1]; concentration at 50% maximal activity, Supplement 3 prints it also for curves with hit call 0, read-out: ac50 Mean.Spheroid.Nonburst.ISI",2.56 µM
same,AC50,"[1]; concentration at 50% maximal activity, Supplement 3 prints it also for curves with hit call 0, read-out: ac50 Mean.Spheroid.Spikes.per.Burst",7.9 µM
same,AC50,"[1]; concentration at 50% maximal activity, Supplement 3 prints it also for curves with hit call 0, read-out: ac50 Mean.Spheroid.Spikes.per.Burst.per.Electrode",6.46 µM
same,AC50,"[1]; concentration at 50% maximal activity, Supplement 3 prints it also for curves with hit call 0, read-out: ac50 Spheroid.Burst.Frequency",2.29 µM
same,AC50,"[1]; concentration at 50% maximal activity, Supplement 3 prints it also for curves with hit call 0, read-out: ac50 Spheroid.Spike.Amplitude.90th.Percentile",16 µM
same,EC50,"[1]; mean across active AC50 values per chemical, read-out: Mean potency",6.15 µM
same,Percent active,[1]; metrics active out of the total number of metrics screened,100%
same,BMD Mean.Spheroid.Burst.Duration,[1]; [4],5.5 µM
same,BMD Mean.Spheroid.Burst.ISI,[1]; [4],2.3 µM
same,BMD Mean.Spheroid.Burst.Peak.Firing.Rate,[1]; [4],2.6 µM
same,BMD Mean.Spheroid.Firing.Rate,[1]; [4],7.8 µM
same,BMD Mean.Spheroid.IBI,[1]; [4],5.9 µM
same,BMD Mean.Spheroid.Nonburst.ISI,[1]; [4],1.8 µM
same,BMD Mean.Spheroid.Spikes.per.Burst,[1]; [4],7.7 µM
same,BMD Mean.Spheroid.Spikes.per.Burst.per.Electrode,[1]; [4],6.2 µM
same,BMD Spheroid.Burst.Frequency,[1]; [4],2.4 µM
same,BMD Spheroid.Spike.Amplitude.90th.Percentile,[1]; [4],5.1 µM
same,ACC Mean.Spheroid.Burst.Duration,[1]; [5],5.4 µM
same,ACC Mean.Spheroid.Burst.ISI,[1]; [5],1.7 µM
same,ACC Mean.Spheroid.Burst.Peak.Firing.Rate,[1]; [5],2.5 µM
same,ACC Mean.Spheroid.Firing.Rate,[1]; [5],8.2 µM
same,ACC Mean.Spheroid.IBI,[1]; [5],6.3 µM
same,ACC Mean.Spheroid.Nonburst.ISI,[1]; [5],2.2 µM
same,ACC Mean.Spheroid.Spikes.per.Burst,[1]; [5],8 µM
same,ACC Mean.Spheroid.Spikes.per.Burst.per.Electrode,[1]; [5],6.4 µM
same,ACC Spheroid.Burst.Frequency,[1]; [5],2 µM
same,ACC Spheroid.Spike.Amplitude.90th.Percentile,[1]; [5],10 µM
same,Top Mean.Spheroid.Burst.Duration,[1]; [6],−97
same,Top Mean.Spheroid.Burst.ISI,[1]; [6],−99
same,Top Mean.Spheroid.Burst.Peak.Firing.Rate,[1]; [6],−95
same,Top Mean.Spheroid.Firing.Rate,[1]; [6],−88
same,Top Mean.Spheroid.IBI,[1]; [6],−94
same,Top Mean.Spheroid.Nonburst.ISI,[1]; [6],−100
same,Top Mean.Spheroid.Spikes.per.Burst,[1]; [6],−100
same,Top Mean.Spheroid.Spikes.per.Burst.per.Electrode,[1]; [6],−95
same,Top Spheroid.Burst.Frequency,[1]; [6],−100
same,Top Spheroid.Spike.Amplitude.90th.Percentile,[1]; [6],−21
same,Hits,"[1]; total number of active endpoints out of 10 MEA activity metrics, 13-day exposure",10
same,hitc CCTE_Shafer_MEA_dev_LDH,[2],1
same,AC50,"[2]; read-out: ac50 CCTE_Shafer_MEA_dev_LDH, rNFA mc5",0.182 µM
CC1(C)S[C@@H]2[C@H](NC(=O)[C@H](N)c3ccc(O)cc3)C(=O)N2[C@H]1C(=O)O [Amoxicillin],BMD Spheroid.Burst.Frequency,[1],448 µM
same,Bioactivity across the 10 MEA endpoints of the BrainSphere MEA assay (in words),[1],inactive across all metrics; also recorded: inactivity across all metrics in both models
same,Hits,[1],0
same,Percent active,[1],0%
same,hitc Mean.Spheroid.Burst.Duration,[1],0
same,hitc Mean.Spheroid.Burst.ISI,[1],0
same,hitc Mean.Spheroid.Burst.Peak.Firing.Rate,[1],0
same,hitc Mean.Spheroid.Firing.Rate,[1],0
same,hitc Mean.Spheroid.IBI,[1],0
same,hitc Mean.Spheroid.Nonburst.ISI,[1],0
same,hitc Mean.Spheroid.Spikes.per.Burst,[1],0
same,hitc Mean.Spheroid.Spikes.per.Burst.per.Electrode,[1],0
same,hitc Spheroid.Burst.Frequency,[1],0
same,hitc Spheroid.Spike.Amplitude.90th.Percentile,[1],0
same,EC (benchmark response 1.349 SD),"[1]; Homo sapiens, read-out: BMD Mean.Spheroid.Burst.ISI",1440 µM
same,EC (benchmark response 1.349 SD),"[1]; Homo sapiens, read-out: BMD Mean.Spheroid.Nonburst.ISI",620 µM
same,AC50,"[1]; Homo sapiens, read-out: ac50 Mean.Spheroid.Burst.Duration",0.22 µM
same,AC50,"[1]; Homo sapiens, read-out: ac50 Mean.Spheroid.Burst.ISI",45 µM
same,AC50,"[1]; Homo sapiens, read-out: ac50 Mean.Spheroid.Burst.Peak.Firing.Rate",0.029 µM
same,AC50,"[1]; Homo sapiens, read-out: ac50 Mean.Spheroid.IBI",0.063 µM
same,AC50,"[1]; Homo sapiens, read-out: ac50 Mean.Spheroid.Spikes.per.Burst",0.01 µM
same,AC50,"[1]; Homo sapiens, read-out: ac50 Mean.Spheroid.Spikes.per.Burst.per.Electrode",0.036 µM
same,AC50,"[1]; Homo sapiens, read-out: ac50 Spheroid.Spike.Amplitude.90th.Percentile",0.13 µM
same,hitc CCTE_Shafer_MEA_dev_LDH,[2],0
